Measurements taken from US10973849B2, “Rhenium complexes and methods of use for treating cancer” (CORNELL UNIVERSITY, priority 2016, dated 2021).
Like-named read-outs stand apart in the source and are kept apart here.

Key:
[1] = system: cisplatin-resistant (KBCP20) cancer cells; test: Cytotoxicity in cisplatin-resistant KBCP20 cancer cells; type: cell-based; conditions: for IC50: cisplatin-resistant cells, read-out: IC50 KBCBP20; for RF (resistance factor): ratio of IC50 values in cisplatin-resistant versus wild-type cell lines
Method: (§1) The Re complex containing the 2,9-dimethyl phen ligand was also tested in wild-type (KB) and cisplatin-resistant (KBCP20) cancer cells.

[2] = system: human cervical cancer cells (HeLa); test: In vitro anticancer activity (MTT) of [Re(CO)3(N—N)(H2O)][OTf] complexes in HeLa cells; type: cell-based; conditions: concentration at which cell proliferation is inhibited by 50%, read-out: IC50 of Re—(H2O) Complex
Method: (§2) HeLa (cervical cancer) cell line was cultured using Dulbecco's Modified Eagle's Medium (DMEM) supplemented with 10% fetal bovine serum (FBS). A2780 (ovarian cancer) and A2780CP70 (cisplatin-resistant ovarian cancer) cell lines were cultured as monolayers with Roswell Park Memorial Institute (RPMI)-1640 culture media supplemented with 10% fetal bovine serum. All cell lines were grown in a humidified incubator at 37° C. with an atmosphere of 5% CO2. Cells were passed at 80-90% confluence, using trypsin/EDTA. Cells were tested monthly for mycoplasma contamination with the PlasmoTest™ mycoplasma detection kit from InvivoGen.
(§3) All compounds were dissolved in phosphate-buffered saline (PBS, pH 7.4) to prepare a 1-2 mM stock solution. For single dose studies, only HeLa cells were used. For both the single dose and full dose response, all cells were grown to 80-90% confluence, detached with trypsin/EDTA, seeded in 96-well plates at 2000 cells/well for HeLa cells and 4000 cells/well for A2780 and A2780CP70 cells in 100 μL of growth media, and incubated for 24 hours. The medium was removed and replaced with fresh medium (200 μL) containing a single concentration of a rhenium(I) complex or media. The cells were then incubated for 4 hours, and then the cells were dosed with 365 nm for 1 hour (one plate under the same dosing conditions was kept outside the incubator in the dark as a control). After exposure to light, the plates incubated for an additional 44 hours, the medium was removed from the wells, and (3(4,5-dimethylthiazol-2-yl)-2,5-tetrazolium bromide (MTT) in RPMI (200 μL, 1 mg/mL) was added. After 4 hours, the MTT/RPMI solution was removed, and the formazan crystals were dissolved in 200 μL of an 8:1 mixture of DMSO and pH 10 glycine buffer. The absorbance at 570 nm in each well was measured using a BioTek Synergy™ HT plate reader. Cell viability was determined by normalizing the absorbance of the treated wells to untreated wells. All compounds that had less than 50% cell viability were analyzed using a full dose response. The % viability data is an average of three independent experiments with six replicates per concentration. The same procedure was followed as above for the full dose response but instead, after 24 hours, varying concentrations of the desired compounds were added. Cell viability was again determined by normalizing the absorbance of the treated wells to untreated wells The concentration of the compound versus % viability was plotted to produce dose-response curves, which were analyzed using a logistic sigmoid function fit with MagicPlot Pro™ software. The reported IC50 values are the average of three independent experiments with six replicates per concentration level.
The in vitro anticancer activities of these complexes were tested in human cervical cancer cells (HeLa), and the results are provided below in Table 1. […] The Hill-Slope is a quantitative measure of the steepness of the dose-response curve.

[3] = system: wild-type (KB) cancer cells; test: Cytotoxicity in wild-type KB cancer cells; type: cell-based
Method: as §1

[4] = system: HeLa (cervical cancer) cell line; test: MTT cell viability of phosphino-Re(I) complexes in HeLa cells, dark or 365 nm light; type: cell-based, human; conditions: for Single Dose Cell Viability (%) Light / Single Dose Cell Viability (%) Dark: HeLa cells, single concentration; for Single Dose Cell Viability (%) Dark: kept in the dark
Method: as §2, §3

[5] = system: A2780CP70 (cisplatin-resistant ovarian cancer) cell line; test: MTT cell viability of phosphino-Re(I) complexes in A2780CP70 cells, dark or 365 nm light; type: cell-based
Method: as §2, §3

[6] = system: A2780 (ovarian cancer) cell line; test: MTT cell viability of phosphino-Re(I) complexes in A2780 cells, dark or 365 nm light; type: cell-based
Method: as §2, §3

[7] = Table 4, HeLa, 365 nm for 1 hour, read-out: IC50 Value (μM) HeLa (light)
[8] = Table 4, HeLa, dark, read-out: IC50 Value (μM) HeLa (dark)
[9] = Table 3, full dose response, 365 nm for 1 hour, read-out: IC50 Value (μM) Light
[10] = Table 3, full dose response, dark, read-out: IC50 Value (μM) Dark
[11] = A2780CP70, 365 nm for 1 hour, read-out: IC50 Value (μM) A2780CP70 (light)
[12] = A2780CP70, dark, read-out: IC50 Value (μM) A2780CP70 (dark)
[13] = A2780, 365 nm for 1 hour, read-out: IC50 Value (μM) A2780 (light)
[14] = A2780, dark, read-out: IC50 Value (μM) A2780 (dark)

| Compound | IC50 [2] | IC50 [4, 9] | IC50 [4, 10] | Single Dose Cell Viability (%) Light ([4]; 365 nm for 1 hour) | Single Dose Cell Viability (%) Dark [4] | also measured |
| --- | --- | --- | --- | --- | --- | --- |
| Cc1ccc2ccc3ccc(C)nc3c2n1.O.O=S(=O)([O-])C(F)(F)F.[C-]#[O+].[C-]#[O+].[C-]#[O+].[Re+] [2,9-dimethyl phen, [Re(CO)3(N—N)(H2O)][OTf]] | 0.97 ± 0.21 µM |  |  |  |  | IC50 [1]: 2 µM; RF (resistance factor) [1]: 5; IC50 [3]: 0.4 µM |
| N.N.[Cl][Pt][Cl] [cisplatin, reference compound] | 3 ± 1.2 µM |  |  |  |  | IC50 [1]: 50 µM; RF (resistance factor) [1]: 62.5; IC50 [3]: 0.8 µM |
| Re(CO)2(phen)(DAPTA)(H2O) [DAPTA-phen dicarb (3b)] |  |  |  |  |  | IC50 [4, 7]: > 200 µM; IC50 [4, 8]: > 200 µM |
| Re(CO)3(bpy)(DAPTA) [DAPTA-bpy (9)] |  | 14.9 ± 3.2 µM | > 200 µM |  |  |  |
| Re(CO)3(bpy)(PTA) [PTA-bpy (7)] |  |  |  | 90.5 ± 4.1% | 97.9 ± 3.7% |  |
| Re(CO)3(bpy)(THP) [THP-bpy (8)] |  |  |  | 73.1 ± 6.4% | 98.9 ± 1.6% |  |
| Re(CO)3(dmbpy)(DAPTA) [DAPTA-dmbpy (12)] |  | 60.3 ± 18.2 µM | > 200 µM |  |  |  |
| Re(CO)3(dmbpy)(PTA) [PTA-dmbpy (10)] |  |  |  | 82.5 ± 9.7% | 94.4 ± 4.9% |  |
| Re(CO)3(dmbpy)(THP) [THP-dmbpy (11)] |  |  |  | 30.7 ± 14.6% | 93.3 ± 6.0% |  |
| Re(CO)3(dmobpy)(DAPTA) [DAPTA-dmobpy (15)] |  | 26.4 ± 9.2 µM | > 200 µM |  |  |  |
| Re(CO)3(dmobpy)(PTA) [PTA-dmobpy (13)] |  |  |  | 96.0 ± 6.8% | 98.2 ± 3.2% |  |
| Re(CO)3(dmobpy)(THP) [THP-dmobpy (14)] |  | 68 ± 4.3 µM | 72.6 µM | 12.7 ± 5.8% | 57.5 ± 11.0% |  |
| Re(CO)3(dmphen)(DAPTA) [DAPTA-dmphen (6)] |  | 19.2 ± 2.9 µM | > 200 µM |  |  |  |
| Re(CO)3(dmphen)(PTA) [PTA-dmphen (4)] |  |  |  | 87.0 ± 8.0% | 90.0 ± 8.8% |  |
| Re(CO)3(dmphen)(THP) [THP-dmphen (5)] |  | 9.6 ± 4.2 µM | > 200 µM | 1.3 ± 1.1% | 61.8 ± 6.2% |  |
| Re(CO)3(phen)(DAPTA) [DAPTA-phen (3)] |  | 5.9 ± 1.4 µM | > 200 µM |  |  | IC50 ([4]; HeLa, 365 nm for 1 hour, w/ oxyhemoglobin, read-out: IC50 Value (μM) HeLa (light)): > 200 µM; IC50 ([4]; HeLa, dark, w/ oxyhemoglobin, read-out: IC50 Value (μM) HeLa (dark)): > 200 µM; IC50 [4, 7]: 5.9 ± 1.4 µM; IC50 [4, 8]: > 200 µM; IC50 [5, 11]: 3.2 ± 0.7 µM; IC50 [5, 12]: > 200 µM; IC50 [6, 13]: 2.2 ± 1.1 µM; IC50 [6, 14]: > 200 µM |
| Re(CO)3(phen)(PTA) [PTA-phen (1)] |  | > 200 µM | > 200 µM | 99.6 ± 0.7% | 99.4 ± 1.0% | IC50 [4, 7]: > 200 µM; IC50 [4, 8]: > 200 µM; IC50 [5, 11]: > 200 µM; IC50 [5, 12]: > 200 µM; IC50 [6, 13]: 53.1 ± 2.6 µM; IC50 [6, 14]: > 200 µM |
| Re(CO)3(phen)(THP) [THP-phen (2)] |  | 26.4 ± 9.2 µM | > 200 µM | 2.5 ± 1.8% | 91.8 ± 8.7% | IC50 [4, 7]: 26.4 ± 9.2 µM; IC50 [4, 8]: > 200 µM; IC50 [5, 11]: 29.9 ± 7.7 µM; IC50 [5, 12]: > 200 µM; IC50 [6, 13]: 4.6 ± 1.4 µM; IC50 [6, 14]: > 200 µM |
| [Re(CO)3(N—N)(H2O)][OTf] [4,4′-dimethoxy bpy] | 8.8 ± 2.4 µM |  |  |  |  |  |
| [Re(CO)3(N—N)(H2O)][OTf] [4,4′-dimethyl bpy] | 5.8 ± 3.4 µM |  |  |  |  |  |
| [Re(CO)3(N—N)(H2O)][OTf] [4,4′dimethylester bpy] | 210 ± 30 µM |  |  |  |  |  |
| [Re(CO)3(N—N)(H2O)][OTf] [4,7-diphenyl phen] | 15 ± 7 µM |  |  |  |  |  |
| [Re(CO)3(N—N)(H2O)][OTf] [bpy] | 15 ± 5 µM |  |  |  |  |  |
| [Re(CO)3(N—N)(H2O)][OTf] [phen] | 9.7 ± 5.8 µM |  |  |  |  |  |
